Source: US10280217B2, “Cell culture additives and their use for increased bioprotein production from cells” (priority 2017, dated 2019)
Where two headings read alike, the source gives them in different places.

Key:
[1] = Glycosylation analysis (released glycans, HILIC); format: physicochemical; conditions: CHO-HBS cells treated with 300 ppm NO vs control
Description: Glycans were enzymatically released from purified IgGs, labeled with a fluorescent dye, and separated by hydrophilic interaction liquid chromatography (GlycoWorks RapiFluor-MS N-Glycan Kit, Waters). Glycans of IgGs purified from CHO-HBS cells were consistent with the typical patterns reported in the literature for proteins expressed in CHO cells. A heterogeneous population of glycans with high proportion of GOF structure followed by G1F and G2F was observed (FIG. 26).

[2] = system: glutathione-related enzymes (S-transferase proteins, catalases, oxidation resistance genes); experiment: Expression of glutathione-related enzymes in 3 L cultures (RNA-seq, Western blot); format: cell-based, Chinese hamster; conditions: gaseous NO vs control
Protocol: (§1) Gene expression profiles were captured using RNA-seq. Conesa A, Madrigal P, Tarazona S, et al. A survey of best practices for RNA-seq data analysis. Genome Biology. 2016; 17:13. doi:10.1186/s13059-016-0881-8. RNA was extracted with a RNeasy Plus Mini kit (Qiagen) and quantified by absorbance at 260 nm with a NanoDrop 2000 (Thermo Fisher Scientific). The RNA quality was assessed using a RNA 6000 Nano Kit (Agilent) and a Bioanalyzer (Agilent). RNA was fragmented and libraries were prepared using commercial kits (TruSeq RNA Library Prep Kit v2, Illumina). RNA was sequenced on a HiSeq 2500 (Illumina) at the DNA Sequencing & Genotyping Center of the University of Delaware. Data were analyzed at the Bioinformatics Core Facility, Center for Bioinformatics and Computational Biology of the University of Delaware. As the specific genome sequence of the CHO DG44 line was not available, a Chinese Hamster genome draft was used as a reference. Genes with differential expression (false discovery rate <0.001) were further analyzed with DAVID 6.8 (https://david.ncifcrf.gov/), STRING 10.0 (http://string-db.org/) and iProXpress (http://pir.georgetown.edu/iproxpress2/).
NO can oxidize intracellular molecules and thereby change the antioxidant levels within the cell, resulting in oxidative stress that potentially leads to membrane dysfunction, DNA damage and inactivation of proteins. […]

[3] = Antibody assembly by SDS-PAGE (non-reducing / reducing); format: physicochemical; conditions: NO-sparged vs control
Description: In the absence of reducing agents, the pool of IgGs consists of three structures: fully assembled IgGs, IgGs missing one light chain, and IgGs missing two light chains. Variations in the proportion of the three structures depend on the production process and intrinsic properties of the IgG molecules. […] In the presence of reducing agents, the three structures collapsed into two forms of approximately 52 and 26 kDa, corresponding to the heavy and light chains, respectively. No major differences were detected between antibodies produced in NO-sparged reactors compared to controls. Byproducts with an apparent molecular mass of 25 kDa were detected on day 10. These species, which might be degradation products of light chains, seemed to be an intrinsic feature of HBS antibodies independent from the NO-based process.

Heme Oxygenase 1 (HO-1) = experiment: HO-1 expression in 3 L cultures (RNA-seq, Western blot); format: cell-based, Chinese hamster; conditions: 3 L cultures exposed to the gas, vs control
Protocol: as §1
Exemplary transcript profiles of cells on days 1, 3 and 5 of 3 L cell cultures were generated between control and gaseous NO treated cultures to perform differential gene expression analysis (FIG. 16). […]

CHO-HBS cells [4] = experiment: Batch CHO cell process in 3 L bioreactors with gaseous or dissolved candidate Additives (VCD, antibody titer, qP); format: cell-based, Chinese hamster; conditions: vs control; for calculated specific cellular productivity (qP) / viable cell density (VCD) / cell growth / antibody titer: 3 L batch cultures; for impact on protein biomolecule production or cell growth: gas sparged into 3 L batch cultures
Protocol: The following candidate gaseous and chemical additives were screened using a batch CHO cell process in a 3 L (2 L working volume) bioreactors. CHO-HBS cells were cultured in CDM4MAb media (HyClone Labaratories; Logan Utah; custom part containing base media cat# SH30801.02 supplemented with an additional 0.5 g/L poloxamer 188) in vented, plain-bottom Erlenmeyer flasks at 3-30×10^5 cells/mL. The cells were cultured for 14-16 days and then inoculated into 3 L semi-batch bioreactors at 3-4×10^5 cells/mL with 2 L working volumes. The bioreactor system monitored and controlled temperature, pH, % CO2, %02, sparge rate, and aeration rate. The bioreactors maintained a sparge rate of 0.1 vvm, 40% DO, and a pH value of 7.10. The pH was controlled by addition of CO2 or 1 N sodium bicarbonate solution. Additionally, 1 M glucose was added and adjusted daily to allow for a glucose consumption rate of 3 g/L/day. Each bioreactor was sampled daily (3-4 mL removed/day) for analysis. Gaseous additives were injected into the bioreactors using the following methods: • Inert Gas Injection (xenon): The bioreactor system controlled the flowrate and composition of oxygen, carbon dioxide, air, and nitrogen that was sparged into each bioreactor. The mixture composition was determined by the dissolved oxygen and pH levels in each reactor. House gas lines for these four gases were filtered and fed into the bioreactor mass flow control system. The effects of xenon were tested by replacing the nitrogen house gas feed with a cylinder containing xenon and replacing the air gas feed with a cylinder containing 21% oxygen and 79% xenon respectively. The system was calibrated for controlling the flowrate of the replacement gas by measuring the bioreactor mass flow controller flowrate for each gas at 12slph using a film flowmeter, then adjusting the gas correction factor for the bioreactor nitrogen or air mass flow controller until the flowrate on the film flowmeter and bioreactor system were the same. […] This allowed the CHO cells to be cultured with the maximum quantity of inert gas. • Reactive Gas Injection (nitric oxide, carbon monoxide, or hydrogen): The bioreactor module controlled the composition and flow of oxygen, air, nitrogen, and carbon dioxide gases as described previously. Reactive gases including nitric oxide, carbon monoxide, or hydrogen were introduced into the gas stream through a tee line connection before the gas mixture entered the bioreactors. The reactive gas flowrate was controlled using a mass flow controller and the flowrate of the bioreactor controlled mixture was adjusted to maintain the total gas flowrate into each reactor at 12slph.

Caspase-3 = target: T1, Caspase-3 (Cricetulus griseus, UniProt Q6JH80); experiment: Caspase-3 activity (EnzCheck Caspase-3 Assay Kit #1) in 3 L cultures; format: cell-based, Chinese hamster; conditions: 3 L cultures ± NO 300 ppm, same number of viable cells
T1 construct: endogenous in cells; host or cells: CHO-HBS cells (CHO DG44 derived), 3 L bioreactor cultures
T1 sequence (Q6JH80 29-175 limits assumed): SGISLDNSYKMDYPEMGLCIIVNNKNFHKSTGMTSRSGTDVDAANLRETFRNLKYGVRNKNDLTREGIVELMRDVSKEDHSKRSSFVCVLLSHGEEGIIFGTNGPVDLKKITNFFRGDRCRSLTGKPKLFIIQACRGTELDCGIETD
T1 sequence (Q6JH80 176-277 limits assumed): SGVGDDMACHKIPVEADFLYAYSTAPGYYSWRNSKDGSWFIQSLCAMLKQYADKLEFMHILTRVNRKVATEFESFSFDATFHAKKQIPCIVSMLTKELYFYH
Description: The NO-specific extension of viability correlates with a decrease in Caspase-3 activity (FIG. 20). Capase-3 activity was monitored with an EnzCheck Caspase-3 Assay Kit #1 (Thermo Fisher Scientific) using samples containing the same number of viable cells. All caspase proteases contain a single cystein at the enzyme catalytic site that is essential for activity. […] Thus, the observed lower caspase-3 activity may be due to a specific blockage of the catalytic cysteine residue through formation of nitrosylthiols.

HO-1 = HO-1 expression in shake flask cultures; format: cell-based, Chinese hamster; conditions: shake flasks, vs control
Protocol: (§2) Cells were grown in CDM4MAb medium supplemented with poloxamer-188. Flasks were incubated on a shaker at 125 rpm in a humidified incubator at 37° C. and 5% CO2. DETA-NO was dissolved in 0.01 M sodium hydroxide solution at a 0.2 M concentration. Aliquots of DETA-NO solution were added daily to cell cultures to reach a final concentration of 0.09, 0.18 or 0.36 mM DETA-NO. Sodium hydroxide solution (0.01M) was added daily as a negative control. 0.01-1.0 mM DETA-NO release NO at a rate in the low nM/sec range (Bouton, C. and Demple, B., 2000. Nitric oxide-inducible expression of heme oxygenase-1 in human cells translation-independent stabilization of the mRNA and evidence for direct action of nitric oxide. Journal of Biological Chemistry, 275(42), pp. 32688-32693).
(§3) The effects of gaseous NO were partially recapitulated by adding NO-releasing compound DETA-NO daily to cell cultures in shake flasks. Cell growth and viability followed similar trends with addition of DETA-NO as with gaseous NO.

[5] = cited from earlier work
CHO-HBS cells [6] = experiment: DETA-NO added daily to shake flask cultures (cell growth, viability); format: cell-based, Chinese hamster; conditions: shake flasks
Protocol: as §2, §3

## [N]=O [Nitric Oxide]
[1]
  fucosylated glycans of IgGs: minor reduction
[2]
  expression of glutathione-related enzymes: stimulates expression
[3]
  overall IgG structure: did not seem to impact
Heme Oxygenase 1 (HO-1)
  expression of HO-1 (oxidative stress response): induces expression
CHO-HBS cells [4]
  calculated specific cellular productivity (qP): boosted qP
  viable cell density (VCD) / cell growth: shifted the cell culture VCD profile
Caspase-3
  Caspase-3 activity: decrease

## O=NO [Nitrite, Sodium Nitrite]
HO-1
  HO-1 expression (oxidative stress response): does not activate
CHO-HBS cells [4]
  antibody titer: no significant impact
  viable cell density (VCD) / cell growth: at most a small effect on VCD in the late phase of culture

## CCCN(CCCN)/[N+]([O-])=N/O [PAPA NONOate]
[5]; 37° C., pH 7.4
  half-life: 15 min

## [Xe] [Xenon]
CHO-HBS cells [4]
  impact on protein biomolecule production or cell growth: do not have a significant impact

## O=[N+]([O-])[O-].[Na+] [Nitrate, Sodium Nitrate]
CHO-HBS cells [4]
  antibody titer: no effect
  viable cell density (VCD) / cell growth: no effect

## [C-]#[O+] [Carbon Monoxide]
Heme Oxygenase 1 (HO-1)
  expression of HO-1 (oxidative stress response): did not lead to an increase
CHO-HBS cells [4]
  antibody titer: less impacted
  calculated specific cellular productivity (qP): higher than control
  viable cell density (VCD) / cell growth: suppressed during the growth phase, but shows higher VCD at the end of the culturing period
CHO-HBS cells [4]; net effect of VCD to qP
  overall yield from batch culture: overall smaller yield

## [O-]/[N+](=N\O[C@@H]1O[C@H](CO)[C@H](O)[C@H](O)[C@H]1O)N1CCCC1 [β-Gal-NO]
[5]; pH 5.6, following activation by β-galactosidase
  half-life: six

## [HH] [Hydrogen]
CHO-HBS cells [4]
  impact on protein biomolecule production or cell growth: do not have a significant impact

## [O]N=O [Nitrogen Dioxide]
CHO-HBS cells [4]
  antibody titer: strongly negative effect
  viable cell density (VCD) / cell growth: strongly negative effect

## [Kr] [Krypton]
CHO-HBS cells [4]
  impact on protein biomolecule production or cell growth: did not significantly affect

## CNCCCCCCN(C)/[N+]([O-])=N/O [MAHMA NONOate]
[5]; 37° C., pH 7.4
  half-life: 1 min

## CCN(CC)/[N+]([O-])=N/O.CCNCC [DEA-NO]
[5]; buffer, pH 7.4
  half-life: 2 min

## [Ar] [Argon]
CHO-HBS cells [4]
  impact on protein biomolecule production or cell growth: did not significantly affect

## CC(C)N(CCCN)/[N+]([O-])=N/O [NOC-5]
[5]; PBS (pH 7.4), 22° C.
  half-life: 93 min

## NCCN(CCN)/[N+]([O-])=N/O [DETA-NO, diethylenetriamine-nitric oxide adduct]
HO-1
  HO-1 expression (oxidative stress response): HO-1 up regulation
CHO-HBS cells [6]; daily addition, relative to control cultures
  viable cell counts: lower at the stationary phase but increased in the late phase of the culture
CHO-HBS cells [6]; higher concentrations tested
  cell death: increased cell death
[5]; 37° C., pH 7.4
  half-life: 1200 min
